Test results as given in patent publication US10759813B2, “Neprilysin inhibitors” (THERAVANCE BIOPHARMA R&D IP, LLC, priority 2010, dated 2020).

biological target: human neprilysin (EC 3.4.24.11; NEP) (Homo sapiens (Human), UniProt P08473); assay: In vitro enzyme inhibition assay at human NEP (fluorogenic peptide substrate); assay type: biochemical; settings: pKi values at human NEP, recombinant human NEP
Method in brief: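 pKi derived from apparent Ki fitted as v=v0/[1+(I/K′)] to Ex320/Em405 fluorescence. Compounds (pM to 10 μM) sat with recombinant human enzyme 30 min at 37 °C before 10 μM fluorogenic Mca peptide was added in HEPES pH 7.5 buffer with 10 μM ZnSO4; 20 min reaction, acetic acid quench.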

Sequence of human neprilysin (EC 3.4.24.11; NEP) (P08473 52-750): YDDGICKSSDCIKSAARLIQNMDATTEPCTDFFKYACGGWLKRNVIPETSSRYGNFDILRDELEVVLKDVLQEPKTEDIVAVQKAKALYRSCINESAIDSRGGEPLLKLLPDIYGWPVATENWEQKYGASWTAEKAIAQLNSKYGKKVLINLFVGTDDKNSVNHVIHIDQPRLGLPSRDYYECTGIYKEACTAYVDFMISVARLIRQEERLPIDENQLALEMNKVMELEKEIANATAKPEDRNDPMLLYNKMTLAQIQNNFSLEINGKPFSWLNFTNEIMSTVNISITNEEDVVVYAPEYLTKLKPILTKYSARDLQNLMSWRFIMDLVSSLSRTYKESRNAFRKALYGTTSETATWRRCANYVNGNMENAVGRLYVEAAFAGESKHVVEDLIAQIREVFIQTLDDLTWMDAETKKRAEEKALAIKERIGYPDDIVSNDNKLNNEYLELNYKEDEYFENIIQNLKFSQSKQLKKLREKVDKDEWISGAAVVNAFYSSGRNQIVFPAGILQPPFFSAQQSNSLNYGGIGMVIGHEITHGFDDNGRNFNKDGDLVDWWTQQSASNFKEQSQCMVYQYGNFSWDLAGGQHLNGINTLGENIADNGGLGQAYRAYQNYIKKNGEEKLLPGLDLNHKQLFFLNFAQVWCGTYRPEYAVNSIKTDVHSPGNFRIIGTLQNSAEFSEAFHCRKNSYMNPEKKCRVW

Ki [nM]	pKi	SMILES
12.6 to 100	–	O=C(N[C@H](Cc1ccc(-c2ccccc2)cc1)CC(O)C(=O)O)c1cc(-c2ccccc2C(F)(F)F)n[nH]1 (stereo partly drawn) [Example 15-81, (R)-5-Biphenyl-4-yl-2-hydroxy-4-{[5-(2-trifluoromethyl-phenyl)-2H-pyrazole-3-carbonyl]-amino}-pentanoic acid]
1.26 to 10	–	O=C(N[C@H](Cc1ccc(-c2ccccc2)cc1)CC(O)C(=O)O)c1cc(-c2ccc(F)cc2)n[nH]1 (stereo partly drawn) [Example 15-82, (R)-5-Biphenyl-4-yl-4-{[5-(4-fluorophenyl)-2H-pyrazole-3-carbonyl]amino}-2-hydroxy-pentanoic acid]
–	≥9.0	O=C(N[C@H](Cc1ccc(-c2ccccc2)cc1)C[C@@H](O)C(=O)O)c1cc(-c2ccccc2Cl)n[nH]1 [Example 15-84, (2R,4R)-5-Biphenyl-4-yl-4-{[5-(2-chlorophenyl)-2H-pyrazole-3-carbonyl]amino}-2-hydroxy-pentanoic acid]
–	≥9.0	COc1ccc(F)cc1-c1cc(C(=O)N[C@H](Cc2ccc(-c3ccccc3)cc2)C[C@@H](O)C(=O)O)[nH]n1 [Example 15-86, (2R,4R)-5-Biphenyl-4-yl-4-{[5-(5-fluoro-2-methoxy-phenyl)-2H-pyrazole-3-carbonyl]-amino}-2-hydroxy-pentanoic acid]
–	≥9.0	Cc1ccc(-c2cc(C(=O)N[C@H](Cc3ccc(-c4ccccc4)cc3)C[C@@H](O)C(=O)O)[nH]n2)s1 [Example 15-89, (2R,4R)-5-Biphenyl-4-yl-2-hydroxy-4-{[5-(5-methylthiophen-2-yl)-2H-pyrazole-3-carbonyl]-amino}-pentanoic acid]
–	≥9.0	O=C(N[C@H](Cc1ccc(-c2ccccc2)cc1)C[C@@H](O)C(=O)O)c1cc(-c2ccc(Cl)s2)n[nH]1 [Example 15-90, (2R,4R)-5-Biphenyl-4-yl-4-{[5-(5-chlorothiophen-2-yl)-2H-pyrazole-3-carbonyl]-amino}-2-hydroxy-pentanoic acid]
12.6 to 100	–	CCC(=O)Nc1cc(C(=O)N[C@H](Cc2ccc(-c3ccccc3)cc2)CC(O)C(=O)O)[nH]n1 (stereo partly drawn) [Example 15-91, (R)-5-Biphenyl-4-yl-2-hydroxy-4-[(5-propionylamino-2H-pyrazole-3-carbonyl)-amino]-pentanoic acid]
12.6 to 100	–	CCCCC(=O)Nc1cc(C(=O)N[C@H](Cc2ccc(-c3ccccc3)cc2)CC(O)C(=O)O)[nH]n1 (stereo partly drawn) [Example 15-92, (R)-5-Biphenyl-4-yl-2-hydroxy-4-[(5-pentanoylamino-2H-pyrazole-3-carbonyl)-amino]-pentanoic acid]
12.6 to 100	–	CCOC(=O)Nc1cc(C(=O)N[C@H](Cc2ccc(-c3ccccc3)cc2)CC(O)C(=O)O)[nH]n1 (stereo partly drawn) [Example 15-93, (R)-5-Biphenyl-4-yl-4-[(5-ethoxycarbonylamino-2H-pyrazole-3-carbonyl)-amino]-2-hydroxy-pentanoic acid]
12.6 to 100	–	COCC(=O)Nc1cc(C(=O)N[C@H](Cc2ccc(-c3ccccc3)cc2)CC(O)C(=O)O)[nH]n1 (stereo partly drawn) [Example 15-94, (R)-5-Biphenyl-4-yl-2-hydroxy-4-{[5-(2-methoxy-acetylamino)-2H-pyrazole-3-carbonyl]-amino}-pentanoic acid]
1.26 to 10	–	COc1ccccc1C(=O)Nc1cc(C(=O)N[C@H](Cc2ccc(-c3ccccc3)cc2)CC(O)C(=O)O)[nH]n1 (stereo partly drawn) [Example 15-95, (R)-5-Biphenyl-4-yl-2-hydroxy-4-{[5-(2-methoxy-benzoylamino)-2H-pyrazole-3-carbonyl]-amino}-pentanoic acid]
–	≥9.0	O=C(N[C@H](Cc1ccc(-c2ccccc2)cc1)C[C@@H](O)C(=O)O)c1cc(NC(=O)c2ccccc2Cl)n[nH]1 [Example 15-96, (2R,4R)-5-Biphenyl-4-yl-4-{[5-(2-chlorobenzoylamino)-2H-pyrazole-3-carbonyl]-amino}-2-hydroxy-pentanoic acid]
1.26 to 10	–	O=C(Nc1cc(C(=O)N[C@H](Cc2ccc(-c3ccccc3)cc2)CC(O)C(=O)O)[nH]n1)c1ccccn1 (stereo partly drawn) [Example 15-100, (R)-5-Biphenyl-4-yl-2-hydroxy-4-({5-[(pyridine-2-carbonyl)-amino]-2H-pyrazole-3-carbonyl}-amino)-pentanoic acid]
12.6 to 100	–	Nc1cc(C(=O)N[C@H](Cc2ccc(-c3ccccc3)cc2)CC(O)C(=O)O)n[nH]1 (stereo partly drawn) [Example 15-101, (R)-4-[(5-Amino-2H-pyrazole-3-carbonyl)-amino]-5-biphenyl-4-yl-2-hydroxy-pentanoic acid]
≤ 1	–	O=C(N[C@H](Cc1ccc(-c2ccccc2)cc1)C[C@@H](O)C(=O)O)c1cc(-c2ccccn2)n[nH]1 [Example 15-102, (2R,4R)-5-Biphenyl-4-yl-2-hydroxy-4-[(5-pyridin-2-yl-2H-pyrazole-3-carbonyl)-amino]-pentanoic acid]
1.26 to 10	–	O=C(N[C@H](Cc1ccc(-c2ccccc2)cc1)C[C@@H](O)C(=O)O)c1cc(-c2cnccn2)n[nH]1 [Example 15-106, (2R,4R)-5-Biphenyl-4-yl-2-hydroxy-4-[(5-pyrazin-2-yl-2H-pyrazole-3-carbonyl)-amino]pentanoic acid]
12.6 to 100	–	CC(=O)c1cc(C(=O)N[C@H](Cc2ccc(-c3ccccc3)cc2)C[C@@H](O)C(N)=O)[nH]n1 [Example 15-108, 5-Acetyl-2H-pyrazole-3-carboxylic acid ((1R,3R)-1-biphenyl-4-ylmethyl-3-carbamoyl-3-hydroxypropyl)amide]
1.26 to 10	–	C[C@H](O)c1cc(C(=O)N[C@H](Cc2ccc(-c3ccccc3)cc2)C[C@@H](O)C(=O)O)[nH]n1 [Example 15-109, (2R,4R)-5-Biphenyl-4-yl-2-hydroxy-4-{[5-((S)-1-hydroxyethyl)-2H-pyrazole-3-carbonyl]amino}pentanoic acid]
1.26 to 10	–	C[C@@H](O)c1cc(C(=O)N[C@H](Cc2ccc(-c3ccccc3)cc2)C[C@@H](O)C(=O)O)[nH]n1 [Example 15-110, (2R,4R)-5-Biphenyl-4-yl-2-hydroxy-4-{[5-((R)-1-hydroxyethyl)-2H-pyrazole-3-carbonyl]amino}pentanoic acid]
–	≥9.0	C/C(=N\O)c1cc(C(=O)N[C@H](Cc2ccc(-c3ccccc3)cc2)C[C@@H](O)C(=O)O)[nH]n1 [Example 15-111, (2R,4R)-5-Biphenyl-4-yl-2-hydroxy-4-[(5-{1-[(E)-hydroxyimino]-ethyl}-2H-pyrazole-3-carbonyl)-amino]-pentanoic acid]
1.26 to 10	–	CCCCc1cc(C(=O)N[C@H](Cc2ccc(-c3ccccc3)cc2)C[C@@H](O)C(=O)O)[nH]n1 [Example 15-112, (2R,4R)-5-Biphenyl-4-yl-4-[(5-butyl-2H-pyrazole-3-carbonyl)-amino]-2-hydroxy-pentanoic acid]
12.6 to 100	–	O=C(N[C@H](Cc1ccc(-c2ccccc2)cc1)CC(O)C(=O)O)c1cn[nH]c1 (stereo partly drawn) [Example 15-113, (R)-5-Biphenyl-4-yl-2-hydroxy-4-[(1H-pyrazole-4-carbonyl)amino]pentanoic acid]
–	≥9.0	O=C(N[C@H](Cc1ccc(-c2ccccc2)cc1)C[C@@H](O)C(=O)O)c1cc2n(n1)CCOc1ccccc1-2 [Example 16-1, (2R,4R)-5-Biphenyl-4-yl-4-[(4,5-dihydro-6-oxa-3,3a-diaza-benzo[e]azulene-2-carbonyl)-amino]-2-hydroxy-pentanoic acid]
12.6 to 100	–	O=C(N[C@H](Cc1ccc(-c2ccccc2)cc1)C[C@@H](O)C(=O)O)c1cc2nn1CCOc1ccccc1-2 [Example 16-2, (2R,4R)-5-Biphenyl-4-yl-2-hydroxy-4-[(8-oxa-11,14-diaza-tricyclo[9.2.1.02,7]tetradeca-1(14),2,4,6,12-pentaene-12-carbonyl)-amino]-pentanoic acid]
1.26 to 10	–	O=C(N[C@H](Cc1ccc(-c2ccccc2)cc1)C[C@@H](O)C(=O)O)c1cc2n(n1)CCCOc1ccccc1-2 [Example 16-3, (2R,4R)-5-Biphenyl-4-yl-2-hydroxy-4-[(10-oxa-5,6-diaza-tricyclo[9.4.0.02,6]pentadeca-1(15),2,4,11,13-pentaene-4-carbonyl)-amino]-pentanoic acid]
1.26 to 10	–	O=C(N[C@H](Cc1ccc(-c2ccccc2)cc1)C[C@@H](O)C(=O)O)c1cc2n(n1)C[C@H](O)COc1ccccc1-2 [Example 16-4, (2R,4R)-5-Biphenyl-4-yl-2-hydroxy-4-[((S)-8-hydroxy-10-oxa-5,6-diaza-tricyclo[9.4.0.02,6]pentadeca-1(15),2,4,11,13-pentaene-4-carbonyl)-amino]-pentanoic acid]
12.6 to 100	–	O=C(N[C@H](Cc1ccc(-c2ccccc2)cc1)C[C@@H](O)C(=O)O)c1cc2n(n1)C[C@@H](O)COc1ccccc1-2 [Example 16-5, (2R,4R)-5-Biphenyl-4-yl-2-hydroxy-4-[((R)-8-hydroxy-10-oxa-5,6-diaza-tricyclo[9.4.0.02,6]pentadeca-1(15),2,4,11,13-pentaene-4-carbonyl)-amino]-pentanoic acid]
1.26 to 10	–	O=C(N[C@H](Cc1ccc(-c2ccccc2)cc1)C[C@@H](O)C(=O)O)c1cc2n(n1)COc1ccccc1-2 [Example 16-6, (2R,4R)-5-Biphenyl-4-yl-2-hydroxy-4-[(5-oxa-3,3a-diaza-cyclopenta[a]naphthalene-2-carbonyl)-amino]-pentanoic acid]
≤ 1	–	O=C(N[C@H](Cc1ccc(-c2cccc(Cl)c2)cc1)C[C@@H](O)C(=O)O)c1cn(O)nn1 [Example 17-A, (2R,4R)-5-(3′-Chlorobiphenyl-4-yl)-2-hydroxy-4-[(1-hydroxy-1H-[1,2,3]triazole-4-carbonyl)-amino]pentanoic Acid]
–	≥9.0	O=C(N[C@H](Cc1ccc(-c2cccc(Cl)c2)cc1)C[C@@H](O)C(=O)O)c1c[nH]nn1 [Example 18-2, (2R,4R)-5-(3′-Chlorobiphenyl-4-yl)-2-hydroxy-4-[(1H-[1,2,3]triazole-4-carbonyl)-amino]-pentanoic acid]

SMILES	Ki [nM]	pKi
O=C(NC(Cc1ccc(-c2ccccc2)cc1)C[C@@H](O)C(=O)O)c1cc(-c2ccc(Cl)cc2)n[nH]1 (stereo partly shown) [Example 15-83]	–	≥9.0
